Earlier results in patent publication US20190167706A1, “Solid Pharmaceutical Composition Comprising Amorphous Sofosbuvir” (Sandoz AG, priority 2016, published 2019).

SMILES | relative humidity at which the substance deliquesces (amorphous form, compared to crystalline forms) | moisture stability: deliquescence under stress conditions (40° C. and a relative humidity (RH) of 75%)
CC(C)OC(=O)[C@H](C)N[P@](=O)(OC[C@H]1O[C@@H](n2ccc(=O)[nH]c2=O)[C@](C)(F)[C@@H]1O)Oc1ccccc1 [Amorphous sofosbuvir, (S)-isopropyl 2-(((S)-(((2R,3R,4R,5R)-5-(2,4-dioxo-3,4-dihydropyrimidin-1(2H)-yl)-4-fluoro-3-hydroxy-4-methyltetrahydrofuran-2-yl)methoxy)(phenoxy)phosphoryl)amino)propanoate] | above 50% | 
CC(C)OC(=O)[C@H](C)N[P@](=O)(OC[C@H]1O[C@@H](n2ccc(=O)[nH]c2=O)[C@](C)(F)[C@@H]1O)Oc1ccccc1 [sofosbuvir, (S)-isopropyl 2-(((S)-(((2R,3R,4R,5R)-5-(2,4-dioxo-3,4-dihydropyrimidin-1(2H)-yl)-4-fluoro-3-hydroxy-4-methyltetrahydrofuran-2-yl)methoxy)(phenoxy)phosphoryl)amino)propanoate] |  | deliquesces after a few hours
